Assay results reported in the CheMixHub ionic liquid set.
Where “and” joins values, the source holds several entries; their conditions need not be identical. Equal entries are not always repeated.

Test: xn = mol fraction of the nth substance listed

CCCCCCCCCCCCCCCC[n+]1ccccc1.O=C([O-])c1ccccc1O + O
electrical conductivity [S/m], 101 kPa
Details | 293.15 K | 298.15 K | 303.15 K | 308.15 K | 313.15 K
x1 = 7.2e-07 | 0.00046 | 0.000513 | 0.000569 | 0.000627 | 0.000668
x1 = 1.44e-06 | 0.000708 | 0.000794 | 0.000883 | 0.000973 | 0.00122
x1 = 1.98e-06 | 0.000945 | 0.00105 | 0.00117 | 0.00129 | –
x1 = 2.34e-06 | 0.00114 | 0.00128 | 0.00144 | 0.00159 | 0.00177
x1 = 2.88e-06 | 0.00129 | 0.00148 | 0.00168 | 0.00186 | –
x1 = 3.24e-06 | – | – | – | – | 0.0023
x1 = 3.42e-06 | 0.00142 | 0.00163 | 0.00186 | 0.0021 | –
x1 = 3.96e-06 | 0.00156 | 0.00178 | 0.00202 | 0.0023 | 0.00268
x1 = 4.32e-06 | 0.00167 | 0.00191 | 0.00217 | 0.00247 | –
x1 = 4.69e-06 | – | – | 0.00232 | 0.00263 | 0.003
x1 = 4.87e-06 | 0.00181 | 0.00205 | – | – | –
x1 = 5.23e-06 | 0.00187 | 0.00217 | 0.00247 | 0.0028 | –
x1 = 5.41e-06 | – | – | – | – | 0.00324
x1 = 5.59e-06 | 0.00204 | 0.00231 | 0.00261 | 0.00294 | –
x1 = 5.95e-06 | 0.00212 | 0.00242 | 0.00273 | 0.00309 | 0.00348
x1 = 6.31e-06 | 0.00224 | 0.00254 | 0.00285 | 0.00321 | –
x1 = 6.49e-06 | 0.00231 | 0.00263 | 0.00296 | 0.00333 | 0.00375
x1 = 6.85e-06 | 0.00243 | 0.00274 | 0.00307 | 0.00345 | –
x1 = 7.03e-06 | – | – | – | – | 0.00396
x1 = 7.21e-06 | 0.00251 | 0.00283 | 0.00319 | 0.00358 | –
x1 = 7.39e-06 | – | – | – | – | 0.00412
x1 = 7.75e-06 | – | – | – | – | 0.00431
x1 = 8.11e-06 | – | – | – | – | 0.00447
x1 = 8.65e-06 | – | – | – | – | 0.00464

CCCCCCCC[N+](C)(CCCCCCCC)CCCCCCCC.[Cl-] + COC(=O)OC
101 kPa
Details | electrical conductivity | viscosity [mPa·s]
298.15 K, x1 = 0.002 | 0.00012 S/m | –
298.15 K, x1 = 0.006 | 0.000267 S/m | –
298.15 K, x1 = 0.011 | 0.000601 S/m | –
298.15 K, x1 = 0.015 | 0.000944 S/m | –
298.15 K, x2 = 0 | 0.0026 S/m | 2391
298.15 K, x2 = 0.67 | 0.015 S/m | 58.07
298.15 K, x2 = 0.88 | 0.026 S/m | 5.19
298.15 K, x2 = 0.98 | 0.00126 S/m | –
303.15 K, x1 = 0.002 | 0.000143 S/m | –
303.15 K, x1 = 0.006 | 0.000346 S/m | –
303.15 K, x1 = 0.011 | 0.00075 S/m | –
303.15 K, x1 = 0.015 | 0.00122 S/m | –
303.15 K, x2 = 0.55 | 0.0126 S/m | 123.5
303.15 K, x2 = 0.98 | 0.00161 S/m | –
308.15 K, x1 = 0.002 | 0.000199 S/m | –
308.15 K, x1 = 0.006 | 0.00043 S/m | –
308.15 K, x2 = 0.76 | 0.0317 S/m | 15.98
308.15 K, x2 = 0.95 | 0.0116 S/m | 1.21
308.15 K, x2 = 0.98 | 0.0017 S/m and 0.00175 S/m | 0.71
313.15 K, x1 = 0.006 | 0.0005 S/m | –
313.15 K, x1 = 0.011 | 0.00105 S/m | –
313.15 K, x2 = 0.55 | 0.0201 S/m | 78.5
313.15 K, x2 = 0.92 | 0.0292 S/m | 1.9
313.15 K, x2 = 0.98 | 0.00188 S/m and 0.0019 S/m | 0.67
318.15 K, x1 = 0.002 | 0.000399 S/m | –
318.15 K, x1 = 0.006 | 0.00062 S/m | –
318.15 K, x1 = 0.011 | 0.00115 S/m | –
318.15 K, x2 = 0.98 | 0.00197 S/m | –

CC(C)O + O + CCCCCCCCCCCCOS(=O)(=O)[O-].[Na+]
298 K, 100 kPa, frequency 0.001 MHz
Details | electrical conductivity [S/m]
x1 = 0.01509, x3 = 0 | 0.00013
x1 = 0.02546, x2 = 0.9745 | 0.00014

CCCCCCCC[n+]1ccn(C)c1.F[P-](F)(F)(F)(F)F + O
101 kPa, x2 = 0.212
Details | electrical conductivity [S/m] | viscosity [mPa·s]
293.15 K | – | 500
295.15 K | 0.12 | –
